Assay results reported in patent EP4644384A1 (Shanghai Lichun Biotech Co., Ltd., priority 2023, dated 2024).

Each compound was assayed against T1, CYP11A1 (Homo sapiens, UniProt P05108) (assay: Pregnenolone synthesis inhibition in NCI-H295R cells (pregnenolone ELISA of culture supernatant)). Conditions: 24 hours incubation, pregnenolone in culture supernatant by ELISA.
T1 construct: host or cells: NCI-H295R human adrenocortical cancer cells
T1 sequence (P05108 40-521): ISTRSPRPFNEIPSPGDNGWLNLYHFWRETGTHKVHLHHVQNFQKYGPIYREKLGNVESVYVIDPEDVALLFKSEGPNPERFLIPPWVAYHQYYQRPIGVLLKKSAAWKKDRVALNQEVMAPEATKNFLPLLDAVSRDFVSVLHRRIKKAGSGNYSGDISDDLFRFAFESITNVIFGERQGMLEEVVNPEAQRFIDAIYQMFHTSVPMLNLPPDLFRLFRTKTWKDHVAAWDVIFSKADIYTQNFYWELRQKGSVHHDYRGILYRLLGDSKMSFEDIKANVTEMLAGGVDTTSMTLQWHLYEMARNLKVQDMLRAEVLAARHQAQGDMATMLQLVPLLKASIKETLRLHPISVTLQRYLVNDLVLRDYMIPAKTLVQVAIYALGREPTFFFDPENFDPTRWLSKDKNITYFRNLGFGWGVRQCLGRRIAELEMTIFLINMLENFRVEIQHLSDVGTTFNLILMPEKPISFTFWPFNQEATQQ
Assay type: cell-based
Description: Conversion of cholesterol into pregnenolone is a first rate-limiting step in the synthesis of all steroid hormones in vertebrates. This conversion reaction involves a two-step continuous monooxygenation reaction catalyzed by the unique cytochrome P450scc (CYP11A) to produce C22-hydroxycholesterol and C20,C22-dihydroxycholesterol in order, followed by CYP11A1-catalyzed breakage of a C20-C22 carbon-carbon single bond in C20,C22-dihydroxycholesterol to produce one molecule of pregnenolone and one molecule of 4-methylvaleraldehyde. Therefore, the inhibitory effect of a compound on CYP11A1 was identified by detecting the ability of the compound to inhibit pregnenolone synthesis.
The ability of different compounds to inhibit pregnenolone biosynthesis was determined by detecting the concentration of pregnenolone (Abnova pregnenolone ELISA kit, KA1912) using enzyme-linked immunosorbent assay (ELISA), so as to detect the ability of the compounds to inhibit CYP11A1. […] In order to determine the half-maximal inhibitory concentrations (IC50) of CYP11A1 inhibition by different compounds, the compounds were added during NCI-H295R cell culture, and after incubation, the concentration of pregnenolone in the culture supernatant was determined.
95 µl of NCI-H295R cells were taken and cultured overnight with a specialized cell culture medium (Procell, CM-0399) in a 96-well culture plate in a cell incubator at 37°C and 5% CO2. 5 µl/well of a DMSO (Sigma, D8418) solution of the compounds to be tested at different concentrations was then added, followed by continued incubation for 24 hours. The final concentrations of the compounds to be tested were 1000 nM, 333.33 nM, 111.11 nM, 37.04 nM, 12.35 nM, 4.12 nM, 1.37 nM, 0.46 nM, and 0 nM. After the incubation was complete, the cells were centrifuged, 80 µl/well of the cell culture supernatant was obtained and 1 : 8 diluted with the cell culture medium, and the concentration of pregnenolone therein was then determined by ELISA method. During ELISA detection, a pregnenolone standard was used to generate a standard curve. The experiment was carried out with replicate wells. The ELISA well plate had been coated with an anti-pregnenolone rabbit polyclonal antibody. In ELISA plate strips, 50 µl/well of the diluted culture supernatant or standard solution or reference substance was added, followed by 100 µl of a pregnenolone-HRP complex solution, and the plate was incubated for 1 hour at room temperature on a plate shaker (QILINBEIER, QB-9002) at 200 rpm. Then, the plate was washed three times with a cleaning solution, with 300 µl each time, and patted dry on absorbent paper. 150 µl of a TMB substrate was added. The plate was incubated on the plate shaker for 10-15 minutes at room temperature, and 50 µl of a stop solution was then added. The absorbance was measured at 450 nm by a microplate reader (PerkinElmer, 2105). The IC50 value was calculated by using GraphPad Prism software. [formula]
Work on `CS(=O)(=O)N1CCC(COc2ccc(CN3Cc4ccccc4C3)[nH]c2=O)CC1` [Compound 2, 6-(isoindolin-2-ylmethyl)-3-((1-(methylsulfonyl)piperidine-4-yl)methoxy)pyridin-2(1H)-one] yielded an IC50 of 222 nM. Work on `Cn1c(CN2Cc3ccccc3C2)ccc(OCC2CCN(S(=O)(=O)C3CC3)CC2)c1=O` [Compound 3, 3-((1-(cyclopropylsulfonyl)piperidine-4-yl)methoxy)-6-(isoindolin-2-ylmethyl)-1-methylpyridin-2(1H)-one] yielded an IC50 of 2.25 nM. For `CN(C)S(=O)(=O)N1CCC(COc2ccc(CN3Cc4ccccc4C3)n(C)c2=O)CC1` [Compound 4, 4-(((6-(isoindolin-2-ylmethyl)-1-methyl-2-oxo-1,2-dihydropyridin-3-yl)oxy)methyl)-N,N-dimethylpiperidine-1-sulfonamide], the IC50 was 1.74 nM. Work on `Cn1c(CN2Cc3ccc(F)cc3C2)ccc(OCC2CCN(S(C)(=O)=O)CC2)c1=O` [Compound 5, 6-((5-fluoroisoindolin-2-yl)methyl)-1-methyl-3-((1-(methylsulfonyl)piperidine-4-yl)methoxy)pyridin-2(1H)-one] yielded an IC50 of 8.49 nM. `Cn1c(CN2Cc3ccccc3C2)ccc(OCC2CCN(S(=O)(=O)C3COC3)CC2)c1=O` [Compound 6] was tested, and the IC50 was 1.94 nM. Compound `CC(=O)N1CCC(COc2ccc(CN3Cc4ccccc4C3)n(C)c2=O)CC1` [Compound 7, 3-((1-acetylpiperidine-4-yl)methoxy)-6-(isoindolin-2-ylmethyl)-1-methylpyridin-2(1H)-one] has an IC50 of 9.34 nM. With `CN(C)S(=O)(=O)N1CCC(COc2ccc(CN3Cc4ccc(F)cc4C3)n(C)c2=O)CC1` [Compound 11, 4-(((6-((5-fluoroisoindolin-2-yl)methyl)-1-methyl-2-oxo-1,2-dihydropyridin-3-yl)oxy)methyl)-N,N-dimethylpiperidine-1-sulfonamide] the IC50 was 1.98 nM. Work on `Cn1c(CN2Cc3ccc(F)cc3C2)ccc(OCC2CCN(S(=O)(=O)C3COC3)CC2)c1=O` [Compound 12, 6-((5-fluoroisoindolin-2-yl)methyl)-1-methyl-3-((1-(oxetan-3-ylsulfonyl)piperidine-4-yl)methoxy)pyridin-2(1H)-one] yielded an IC50 of 3.57 nM. `Cn1c(CN2Cc3ccc(C(F)(F)F)cc3C2)ccc(OCC2CCN(S(C)(=O)=O)CC2)c1=O` [Compound 13, 1-methyl-3-((1-(methylsulfonyl)piperidine-4-yl)methoxy)-6-((5-(trifluoromethyl)isoindolin-2-yl)methyl)pyridin-2(1H)-one] gave an IC50 of 12 nM. For `[2H]C([2H])([2H])n1c(CN2Cc3ccc(C(F)(F)F)cc3C2)ccc(OCC2CCN(S(C)(=O)=O)CC2)c1=O` [Compound 14, 1-(methyl-d3)-3-((1-(methylsulfonyl)piperidine-4-yl)methoxy)-6-((5-(trifluoromethyl)isoindolin-2-yl)methyl)pyridin-2(1H)-one], the IC50 was 4.75 nM. Compound `[2H]C([2H])([2H])n1c(CN2Cc3ccc(F)cc3C2)ccc(OCC2CCN(S(=O)(=O)C3COC3)CC2)c1=O` [Compound 15, 6-((5-fluoroisoindolin-2-yl)methyl)-1-(methyl-d3)-3-((1-(oxetan-3-ylsulfonyl)piperidine-4-yl)methoxy)pyridin-2(1H)-one] has an IC50 of 3.99 nM. Work on `[2H]C([2H])([2H])n1c(CN2Cc3ccccc3C2)ccc(OCC2CCN(S(C)(=O)=O)CC2)c1=O` [Compound 17, 6-(isoindolin-2-ylmethyl)-1-(methyl-d3)-3-((1-(methylsulfonyl)piperidine-4-yl)methoxy)pyridin-2(1H)-one] yielded an IC50 of 3.76 nM. `[2H]C([2H])([2H])n1c(CN2Cc3ccc(C(F)(F)F)cc3C2)ccc(OCC2CCN(S(=O)(=O)C3CC3)CC2)c1=O` [Compound 19, 3-((1-(cyclopropylsulfonyl)piperidine-4-yl)methoxy)-1-(methyl-d3)-6-((5-(trifluoromethyl)isoindolin-2-yl)methyl)pyridin-2(1H)-one] was tested, and the IC50 was 7.8 nM. `[2H]C([2H])([2H])n1c(CN2Cc3ccc(F)cc3C2)ccc(OCC2CCN(S(=O)(=O)C3CC3)CC2)c1=O` [Compound 20] was tested, and the IC50 was 1.94 nM. In the case of `Cn1c(CN2Cc3ccc(C(F)(F)F)cc3C2)ccc(OCC2CCN(S(=O)(=O)C3CC3)CC2)c1=O` [Compound 21, 3-((1-(cyclopropylsulfonyl)piperidine-4-methyl)methoxy)-1-methyl-6-((5-(trifluoromethyl)isoindolin-2-yl)methyl)pyridin-2(1H)-one], the IC50 is reported as 2.21 nM. In the case of `CN(C)S(=O)(=O)N1CCC(COc2ccc(CN3Cc4ccc(C(F)(F)F)cc4C3)n(C)c2=O)CC1` [Compound 22, N,N-dimethyl-4-(((1-methyl-2-oxo-6-((5-(trifluoromethyl)isoindolin-2-yl)methyl)-1,2-dihydropyridin-3-yl)oxy)methyl)piperidine-1-sulfonamide], the IC50 is reported as 8.61 nM. `Cn1c(CN2Cc3ccc(C(F)(F)F)cc3C2)ccc(OCC2CCN(S(=O)(=O)C3COC3)CC2)c1=O` [Compound 23, 1-methyl-3-((1-(oxetan-3-ylsulfonyl)piperidine-4-yl)methoxy)-6-((5-(trifluoromethyl)isoindolin-2-yl)methyl)pyridin-2(1H)-one] was tested, and the IC50 was 3.57 nM. `[2H]C([2H])([2H])n1c(CN2Cc3ccc(F)cc3C2)ccc(OCC2CCN(S(C)(=O)=O)CC2)c1=O` [Compound 24, 6-((5-fluoroisoindolin-2-yl)methyl)-1-(methyl-d3)-3-((1-(methylsulfonyl)piperidine-4-yl)methoxy)pyridin-2(1H)-one] was tested, and the IC50 was 4.86 nM. In the case of `CCn1c(CN2Cc3ccccc3C2)ccc(OCC2CCN(S(=O)(=O)C(F)(F)F)CC2)c1=O` [Compound 27, 1-ethyl-6-(isoindolin-2-ylmethyl)-3-((1-((trifluoromethyl)sulfonyl)piperidine-4-yl)methoxy)pyridin-2(1H)-one], the IC50 is reported as 0.136 nM. `CCn1c(CN2Cc3ccccc3C2)ccc(OCC2CCN(S(=O)(=O)NC)CC2)c1=O` [Compound 29, 4-(((1-ethyl-6-(isoindolin-2-ylmethyl)-2-oxo-1,2-dihydropyridin-3-yl)oxy)methyl)-N-methylpiperidine-1-sulfonamide] gave an IC50 of 14.8 nM.
